This test has as its system 293T-HRE-GFP-luc cells. Description: Cell-based reporter assay for IC50 determinations (HRE-luciferase, hypoxia). To be noted: 6 hrs hypoxia (1% O2), luminescence. Summed up:
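293T-HRE-GFP-luc cells were pre-incubated with serially diluted compounds for 30 min under normoxia, then held 6 hrs in hypoxia (1% O2, 37° C). HRE-driven luciferase read by Steadylite Plus luminescence; IC50 from four-parameter logistic fit.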

Structures can show the parent of a compound that is named as a salt. A value given as a limit tells only on which side of the number the result lay.

Usually IC50 stands for the midpoint of a concentration-inhibition curve. A low value points to higher potency. Consider `CN1CCN(c2cc(Cn3nc(C(=O)Nc4ccc(OC(F)(F)F)cc4)ccc3=O)ccn2)CC1` [Example 3, 1-(2-(4-Methylpiperazin-1-yl)pyridin-4-yl)methyl)-6-oxo-N-(4-(trifluoromethoxy)phenyl)-1,6-dihydropyridazine-3-carboxamide bis trifluoroacetate salt], for which, where the note is “6 h”, the concentration for half-maximal inhibition (IC50) fell in the range of 100 to 1000 nM.

The compound `COC(=O)C(C)(C)c1cccc(Cn2nc(-c3nc(-c4ccc(OC(F)(F)F)cc4)no3)ccc2=O)c1` [Example 30, Methyl 2-methyl-2-{3-[(6-oxo-3-{3-[4-(trifluoromethoxy)phenyl]-1,2,4-oxadiazol-5-yl}-1,6-dihydropyridazin-1-yl)methyl]phenyl}propanoate] showed a half-inhibitory concentration (IC50) (6 h) of less than 100 nM.

For the compound `Cc1ccc(-c2nc(-c3ccc(OC(F)(F)F)cc3)no2)c(=O)n1Cc1ccnc(N2CCCC2)c1` [Example 16, 4-((6-methyl-2-oxo-3-(3-(4-(trifluoromethoxy)phenyl)-1,2,4-oxadiazol-5-yl)pyridin-1(2H)-yl)methyl)-2-(pyrrolidin-1-yl)pyridin-1-ium trifluoroacetate], where the note is “6 h”, the concentration for half-maximal inhibition (IC50) is less than 100 nM.

`CN1CCN(c2cc(Cn3cc(-c4nnc(-c5ccc(OC(F)(F)F)cc5)o4)ccc3=O)ccn2)CC1` [Example 101, 1-Methyl-4-(4-((2-oxo-5-(5-(4-(trifluoromethoxy)phenyl)-1,3,4-oxadiazol-2-yl)pyridin-1(2H)-yl)methyl)pyridin-2-yl)piperazin-1-ium 2,2,2-trifluoroacetate] had an IC50 (6 h) of 100 to 1000 nM.

For the setting “6 h”, `COC(=O)Cc1cccc(Cn2cc(-c3nc(-c4ccc(OC(F)(F)F)cc4)no3)ccc2=O)c1` [Example 155, methyl 2-{3-[(2-oxo-5-{3-[4-(trifluoromethoxy)phenyl]-1,2,4-oxadiazol-5-yl}-1,2-dihydropyridin-1-yl)methyl]phenyl}acetate] registered a half-maximal inhibitory concentration (IC50) of less than 100 nM.

`CN1CCN(c2cccc(Cn3cc(-c4nc(-c5ccc(OC(F)(F)F)cc5)no4)ccc3=O)c2)CC1=O` [Example 169, 1-methyl-4-{3-[(2-oxo-5-{3-[4-(trifluoromethoxy)phenyl]-1,2,4-oxadiazol-5-yl}-1,2-dihydropyridin-1-yl)methyl]phenyl}piperazin-2-one] came in with a half-inhibitory concentration (IC50) (6 h) of less than 100 nM.

`CN(C)C(=O)COc1cccc(Cn2cc(-c3nc(-c4ccc(OC(F)(F)F)cc4)no3)ccc2=O)c1` [Example 149, N,N-dimethyl-2-{3-[(2-oxo-5-{3-[4-(trifluoromethoxy)phenyl]-1,2,4-oxadiazol-5-yl}-1,2-dihydropyridin-1-yl)methyl]phenoxy}acetamide] came in with an IC50 (6 h) of less than 100 nM.

Consider `COCCOc1cccc(Cn2cc(-c3noc(-c4ccc(C5=CCOCC5)cc4)n3)ccc2=O)c1` [Example 212, 5-{5-[4-(3,6-dihydro-2H-pyran-4-yl)phenyl]-1,2,4-oxadiazol-3-yl}-1-{[3-(2-methoxyethoxy)phenyl]methyl}-1,2-dihydropyridin-2-one], for which the IC50 (6 h) is less than 100 nM.

The compound `CC(C)Oc1ccc(-c2nc(-c3ccc(=O)n(Cc4cccc(N5CCC(S(C)(=O)=O)CC5)c4)c3)no2)cc1` [Example 78, 5-(5-(4-Isopropoxyphenyl)-1,2,4-oxadiazol-3-yl)-1-(3-(4-(methylsulfonyl)piperidin-1-yl)benzyl)pyridin-2(1H)-one] displayed an IC50 (6 h) of less than 100 nM.

For the setting “6 h”, `COCCOc1cccc(Cn2cc(-c3noc(-c4ccc(C(C)(C)O)cc4)n3)ccc2=O)c1` [Example 73, 5-(5-(4-(2-Hydroxypropan-2-yl)phenyl)-1,2,4-oxadiazol-3-yl)-1-(3-(2-methoxyethoxy)benzyl)pyridin-2(1H)-one] showed a half-inhibitory concentration (IC50) of less than 100 nM.

`COC(=O)c1cccc(Cn2nc(-c3nc(-c4ccc(OC(F)(F)F)cc4)no3)ccc2=O)c1` [Example 109, methyl 3-((6-oxo-3-(3-(4-(trifluoromethoxy)phenyl)-1,2,4-oxadiazol-5-yl)pyridazin-1(6H)-yl)methyl)benzoate] displayed a concentration for half-maximal inhibition (IC50) (6 h) of 100 to 1000 nM.

Compound `COCCOc1cccc(Cn2cc(-c3noc(-c4ccc(C(C)(C)COC)cc4)n3)ccc2=O)c1` [Example 72, 15-(5-(4-(1-Methoxy-2-methylpropan-2-yl)phenyl)-1,2,4-oxadiazol-3-yl)-1-(3-(2-methoxyethoxy)benzyl)pyridin-2(1H)-one] had an IC50 (6 h) of less than 100 nM.

`COCCOc1cccc(Cn2cc(-c3noc(-c4ccc(S(=O)(=O)C(C)C)cc4)n3)ccc2=O)c1` [Example 235, 1-{[3-(2-methoxyethoxy)phenyl]methyl}-5-{5-[4-(propane-2-sulfonyl)phenyl]-1,2,4-oxadiazol-3-yl}-1,2-dihydropyridin-2-one] returned an IC50 (6 h) of 100 to 1000 nM.

On to `CC(C)(C(=O)O)c1cccc(Cn2cc(-c3nc(-c4ccc(OC(F)(F)F)cc4)no3)ccc2=O)c1` [Example 36, 2-Methyl-2-{3-[(2-oxo-5-{3-[4-(trifluoromethoxy)phenyl]-1,2,4-oxadiazol-5-yl}-1,2-dihydropyridin-1-yl)methyl]phenyl}propanoic acid], for which, for the setting “6 h”, the IC50 lay in the range of 100 to 1000 nM.

`CS(=O)(=O)C1CCN(c2cc(Cn3nc(-c4nc(-c5ccc(OC(F)(F)F)cc5)no4)ccc3=O)ccn2)CC1` [Example 184, 2-{[2-(4-methanesulfonylpiperidin-1-yl)pyridin-4-yl]methyl}-6-{3-[4-(trifluoromethoxy)phenyl]-1,2,4-oxadiazol-5-yl}-2,3-dihydropyridazin-3-one] yielded a 50% inhibitory concentration (IC50) (6 h) of less than 100 nM.

On to `COCCOc1cccc(Cn2cc(-c3noc(-c4cnc(NC(C)(C)C)nc4)n3)ccc2=O)c1` [Example 249, 5-{5-[2-(tert-butylamino)pyrimidin-5-yl]-1,2,4-oxadiazol-3-yl}-1-{[3-(2-methoxyethoxy)phenyl]methyl}-1,2-dihydropyridin-2-one], for which the IC50 (6 h) was less than 100 nM.

As to `COCCOc1cccc(Cn2cc(-c3noc(-c4cnc(N5CCCC5)nc4)n3)ccc2=O)c1` [Example 238, 1-{[3-(2-methoxyethoxy)phenyl]methyl}-5-{5-[2-(pyrrolidin-1-yl)pyrimidin-5-yl]-1,2,4-oxadiazol-3-yl}-1,2-dihydropyridin-2-one], the 50% inhibitory concentration (IC50) (6 h) is less than 100 nM.

The compound `COCCOc1cccc(Cn2cc(-c3noc(-c4ccc(S(=O)(=O)N(C)C)cc4)n3)ccc2=O)c1` [Example 216, 4-[3-(1-{[3-(2-methoxyethoxy)phenyl]methyl}-6-oxo-1,6-dihydropyridin-3-yl)-1,2,4-oxadiazol-5-yl]-N,N-dimethylbenzene-1-sulfonamide] returned an IC50 (6 h) of 100 to 1000 nM.

In turn, `CC(C)Oc1ccc(-c2nnc(-c3ccc(=O)n(Cc4cccc(N5CCC(S(C)(=O)=O)CC5)c4)c3)o2)cc1` [Example 264, 1-{[3-[4-methanesulfonylpiperidin-1-yl)phenyl]methyl}-5-{5-[4-(propan-2-yloxy)phenyl]-1,3,4-oxadiazol-2-yl}-1,2-dihydropyridin-2-one] gave an IC50 (6 h) of 100 to 1000 nM.

Turning to `COCCOc1cccc(Cn2cc(-c3noc(-c4cnc(C5CC5)nc4)n3)ccc2=O)c1` [Example 244, 5-[5-(2-cyclopropylpyrimidin-5-yl)-1,2,4-oxadiazol-3-yl]-1-{[3-(2-methoxyethoxy)phenyl]methyl} 1,2-dihydropyridin-2-one], the IC50 (6 h) is less than 100 nM.

As for `COCCOc1cccc(Cn2cc(-c3noc(-c4ccc(C(F)(F)F)cc4)n3)ccc2=O)c1` [Example 65, 1-(3-(2-Methoxyethoxy)benzyl)-5-(5-(4-(trifluoromethyl)phenyl)-1,2,4-oxadiazol-3-yl)pyridin-2(1H)-one], the IC50 is 100 to 1000 nM.

As to `CN(C)C(=O)c1cccc(Cn2cc(-c3nc(-c4ccc(OC(F)(F)F)cc4)no3)ccc2=O)c1` [Example 134, N,N-dimethyl-3-[(2-oxo-5-{3-[4-(trifluoromethoxy)phenyl]-1,2,4-oxadiazol-5-yl}-1,2-dihydropyridin-1-yl)methyl]benzamide], the IC50 (6 h) is less than 100 nM.

For the setting “6 h”, `COC(=O)/C=C/c1cccc(Cn2cc(-c3nc(-c4ccc(OC(F)(F)F)cc4)no3)ccc2=O)c1` [Example 172, methyl (2E)-3-{3-[(2-oxo-5-{3-[4-(trifluoromethoxy)phenyl]-1,2,4-oxadiazol-5-yl}-1,2-dihydropyridin-1-yl)methyl]phenyl}prop-2-enoate] returned an IC50 of less than 100 nM.

`COCCOc1cccc(Cn2cc(-c3noc(-c4ccc(NC(C)=O)cc4)n3)ccc2=O)c1` [Example 226, N-{4-[3-(1-{[3-(2-methoxyethoxy)phenyl]methyl}-6-oxo-1,6-dihydropyridin-3-yl)-1,2,4-oxadiazol-5-yl]phenyl}acetamide]: the half-inhibitory concentration (IC50) (6 h) lay in the range of 100 to 1000 nM.

The compound `COCCOc1cccc(Cn2cc(-c3noc(-c4cnc(OCCOC)nc4)n3)ccc2=O)c1` [Example 239, 1-{[3-(2-methoxyethoxy)phenyl]methyl}-5-{5-[2-(2-methoxyethoxy)pyrimidin-5-yl]-1,2,4-oxadiazol-3-yl}-1,2-dihydropyridin-2-one] yielded an IC50 (6 h) of 100 to 1000 nM.

Consider `COCCOc1cccc(Cn2nc(-c3nc(-c4ccc(OC(F)(F)F)cc4)no3)ccc2=O)c1` [Example 177, 2-{[3-(2-methoxyethoxy)phenyl]methyl}-6-{3-[4-(trifluoromethoxy)phenyl]-1,2,4-oxadiazol-5-yl}-2,3-dihydropyridazin-3-one], for which the half-maximal inhibitory concentration (IC50) (6 h) was less than 100 nM.

Where the note is “6 h”, `Cc1cccc(Cn2cc(-c3nc(-c4ccc(OC(F)(F)F)cc4)no3)ccc2=O)c1` [Example 152, 1-[(3-methylphenyl)methyl]-5-{3-[4-(trifluoromethoxy)phenyl]-1,2,4-oxadiazo-5-yl}-1,2-dihydropyridin-2-one] returned an IC50 of less than 100 nM.

`COC(=O)c1cc(Cn2nc(-c3nc(-c4ccc(OC(F)(F)F)cc4)no3)ccc2=O)ccc1F` [Example 126, methyl 2-fluoro-5-((6-oxo-3-(3-(4-(trifluoromethoxy)phenyl)-1,2,4-oxadiazol-5-yl)pyridazin-1(6H)-yl)methyl)benzoate] came in with a 50% inhibitory concentration (IC50) (6 h) of less than 100 nM.

In the case of `CN1CCN(c2cc(Cn3nc(-c4nc(-c5ccc(OC(F)(F)F)cc5)no4)ccc3=O)ccc2F)CC1` [Example 113, 2-(4-fluoro-3-(4-methylpiperazin-1-yl)benzyl)-6-(3-(4-(trifluoromethoxy)phenyl)-1,2,4-oxadiazol-5-yl)pyridazin-3(2H)-one], the IC50 (6 h) is less than 100 nM.

The record behind these values is US20140073634A1 (Institute For Applied Cancer Science/The University of …, priority 2012, published 2014).
